According to ChEMBL document CHEMBL5055636, “Design, Optimization, and Structural Characterization of an Apoptosis-Inducing Factor Peptide Targeting Human Cyclophilin A to Inhibit Apoptosis Inducing Factor-Mediated Cell Death” (J Med Chem, 2021):
Activity calls are given as the source filed them. The rule behind the calls is not given here. Positions of bridges follow the written chain, without caps; N, C: chain ends. Residues, ends and D or L forms follow the SMILES beside them.

Tests used:
[1] = target: Peptidyl-prolyl cis-trans isomerase A (Homo sapiens, UniProt P62937); experiment: Binding affinity to His6-tagged CypA (unknown origin) expressed in Escherichia coli BL21 (DE3) incubation at 1 hr by multimode plate reader
[2] = Stability of the compound in human serum after 2 hrs by RP-HPLC analysis; format: ADME, cell-free
HT-22 = experiment: Neuroprotective activity against […]-induced toxicity in mouse HT-22 cells assessed as increase in survival at 50 uM preincubated for 24 hrs followed by […] and measured after 16 hrs by MTT assay; format: functional; details: time 40 hrs
[3] = Stability of the compound in human serum assessed as compound remaining after 12 hrs by RP-HPLC analysis; format: ADME, cell-free; details: read-out: Stability
[4] = Cytotoxicity against mouse HT-22 cells assessed as cell viability at 50 uM measured after 24 hrs by MTT assay; format: cell-based; details: read-out: Activity
[5] = Stability of the compound in human serum after 6 hrs by RP-HPLC analysis; format: ADME, cell-free
[6] = Stability of the compound in human serum assessed as half life after 12 hrs by RP-HPLC analysis; format: ADME, cell-free

For `CC[C@H](C)[C@@H]1NC(=O)[C@H](CC(C)C)NC(=O)[C@@H](NC(C)=O)CSSC[C@@H](C(N)=O)NC(=O)[C@H](CCC(=O)O)NC(=O)[C@H](C(C)C)NC(=O)[C@H](CCCCN)NC(=O)[C@H](CCCNC(=N)N)NC(=O)CNC(=O)[C@H](CC(=O)O)NC(=O)[C@H](C)NC(=O)[C@H](CC(C)C)NC(=O)[C@H](CCCCN)NC1=O` (Ac-CLIKLADGRKVEC-NH2; disulfide 1-13), the Activity [1] was “inactive”.
For `CC[C@H](C)[C@@H]1NC(=O)[C@H](CC(C)C)NC(=O)[C@@H](NC(C)=O)CSSC[C@@H](C(N)=O)NC(=O)[C@H](CCC(=O)O)NC(=O)[C@H](C(C)C)NC(=O)[C@H](CCCCN)NC(=O)[C@H](C)NC(=O)CNC(=O)[C@H](CC(=O)O)NC(=O)[C@H](CCCCN)NC(=O)[C@H](CC(C)C)NC(=O)[C@H](CCCCN)NC1=O` (Ac-CLIKLKDGAKVEC-NH2; disulfide 1-13), the Activity [1] was “inactive”.
With `CC[C@H](C)[C@@H]1NC(=O)[C@@H](NC(C)=O)CSSC[C@@H](C(N)=O)NC(=O)[C@H](C(C)C)NC(=O)[C@H](CCCCN)NC(=O)[C@H](CCCNC(=N)N)NC(=O)CNC(=O)[C@H](CC(=O)O)NC(=O)[C@H](CCCCN)NC(=O)[C@H](CC(C)C)NC(=O)[C@H](CCCCN)NC1=O` (Ac-CIKLKDGRKVC-NH2; disulfide 1-11) the Stability [2] was “Unstable”, the Activity (HT-22) was 10% and the Kd [1] was 2.4 µM. The remaining at 12 h [3] was 75% and the viability at 24 h, 50 µM [4] was > 90%.
With `CC[C@H](C)[C@@H]1NC(=O)[C@H](CC(C)C)NC(=O)[C@@H](NC(C)=O)CSSC[C@@H](C(N)=O)NC(=O)[C@H](CCC(=O)O)NC(=O)[C@H](C(C)C)NC(=O)[C@H](CCCCN)NC(=O)[C@H](CCCNC(=N)N)NC(=O)CNC(=O)[C@H](CC(=O)O)NC(=O)[C@H](CCCCN)NC(=O)[C@H](CC(C)C)NC(=O)[C@H](C)NC1=O` (Ac-CLIALKDGRKVEC-NH2; disulfide 1-13) the Activity [1] was “inactive”.
For `CC(=O)N[C@H]1CSSC[C@@H](C(N)=O)NC(=O)[C@H](CCC(=O)O)NC(=O)[C@H](C(C)C)NC(=O)[C@H](CCCCN)NC(=O)[C@H](CCCNC(=N)N)NC(=O)CNC(=O)[C@H](CC(=O)O)NC(=O)[C@H](CCCCN)NC(=O)[C@H](CC(C)C)NC(=O)[C@H](CCCCN)NC(=O)[C@H](C)NC(=O)[C@H](CC(C)C)NC1=O` (Ac-CLAKLKDGRKVEC-NH2; disulfide 1-13), the Activity [1] was “Active”.
In the case of `CC[C@H](C)[C@@H]1NC(=O)[C@H](CC(C)C)NC(=O)[C@@H](NC(C)=O)CSSC[C@@H](C(N)=O)NC(=O)[C@H](CCC(=O)O)NC(=O)[C@H](C(C)C)NC(=O)[C@H](CCCCN)NC(=O)[C@H](CCCNC(=N)N)NC(=O)CNC(=O)[C@H](CC(=O)O)NC(=O)[C@H](CCCCN)NC(=O)[C@H](C)NC(=O)[C@H](CCCCN)NC1=O` (Ac-CLIKAKDGRKVEC-NH2; disulfide 1-13), the Activity [1] is reported as “Active”.
`CC[C@H](C)[C@H](NC(=O)[C@H](CC(C)C)NC(=O)[C@H](CS)NC(C)=O)C(=O)N[C@@H](CCCCN)C(=O)N[C@@H](CC(C)C)C(=O)N[C@@H](CCCCN)C(=O)N[C@@H](CC(=O)O)C(=O)NCC(=O)N[C@@H](CCCNC(=N)N)C(=O)N[C@@H](CCCCN)C(=O)N[C@H](C(=O)N[C@@H](CCC(=O)O)C(=O)N[C@@H](CS)C(N)=O)C(C)C` (Ac-CLIKLKDGRKVEC-NH2) gave a Kd [1] of 30 µM.
In the case of `CC[C@H](C)[C@@H]1NC(=O)[C@H](C)NC(=O)[C@@H](NC(C)=O)CSSC[C@@H](C(N)=O)NC(=O)[C@H](CCC(=O)O)NC(=O)[C@H](C(C)C)NC(=O)[C@H](CCCCN)NC(=O)[C@H](CCCNC(=N)N)NC(=O)CNC(=O)[C@H](CC(=O)O)NC(=O)[C@H](CCCCN)NC(=O)[C@H](CC(C)C)NC(=O)[C@H](CCCCN)NC1=O` (Ac-CAIKLKDGRKVEC-NH2; disulfide 1-13), the Activity [1] is reported as “Active”.
With `CC[C@H](C)[C@@H]1NC(=O)[C@H](CC(C)C)NC(=O)[C@@H](NC(C)=O)CSSC[C@@H](C(N)=O)NC(=O)[C@H](CCC(=O)O)NC(=O)[C@H](C)NC(=O)[C@H](CCCCN)NC(=O)[C@H](CCCNC(=N)N)NC(=O)CNC(=O)[C@H](CC(=O)O)NC(=O)[C@H](CCCCN)NC(=O)[C@H](CC(C)C)NC(=O)[C@H](CCCCN)NC1=O` (Ac-CLIKLKDGRKAEC-NH2; disulfide 1-13) the Activity [1] was “Active”.
With `CC[C@H](C)[C@@H]1NC(=O)[C@H](CC(C)C)NC(=O)[C@@H](NC(C)=O)CSSC[C@@H](C(N)=O)NC(=O)[C@H](CCC(=O)O)NC(=O)[C@H](C(C)C)NC(=O)[C@H](C)NC(=O)[C@H](CCCNC(=N)N)NC(=O)CNC(=O)[C@H](CC(=O)O)NC(=O)[C@H](CCCCN)NC(=O)[C@H](CC(C)C)NC(=O)[C@H](CCCCN)NC1=O` (Ac-CLIKLKDGRAVEC-NH2; disulfide 1-13) the Activity [1] was “inactive”.
`CC[C@H](C)[C@@H]1NC(=O)[C@H](CC(C)C)NC(=O)[C@@H](NC(C)=O)CSSC[C@@H](C(N)=O)NC(=O)[C@H](CCC(=O)O)NC(=O)[C@H](C(C)C)NC(=O)[C@H](CCCCN)NC(=O)[C@H](CCCNC(=N)N)NC(=O)CNC(=O)[C@H](CC(=O)O)NC(=O)[C@H](CCCCN)NC(=O)[C@H](CC(C)C)NC(=O)[C@H](CCCCN)NC1=O` (Ac-CLIKLKDGRKVEC-NH2; disulfide 1-13) gave a Kd [1] of 3.2 µM.
In the case of `CC[C@H](C)[C@H](NC(=O)[C@H](Cc1cnc[nH]1)NC(=O)[C@H](CC(=O)O)NC(=O)[C@@H](NC(=O)[C@H](CCC(=O)O)NC(=O)[C@@H](NC(=O)[C@H](CCCCN)NC(=O)[C@H](CCCNC(=N)N)NC(=O)CNC(=O)[C@H](CC(=O)O)NC(=O)[C@H](CCCCN)NC(=O)[C@H](CC(C)C)NC(=O)[C@H](CCCCN)NC(=O)[C@@H](NC(=O)[C@H](CC(C)C)NC(=O)[C@H](CC(C)C)NC(=O)[C@H](CCCCN)NC(=O)CNC(=O)[C@H](CO)NC(=O)[C@H](CO)NC(=O)[C@@H](NC(=O)CNC(=O)[C@@H](NC(=O)[C@H](CO)NC(=O)[C@@H](N)CCC(N)=O)C(C)C)C(C)C)[C@@H](C)CC)C(C)C)[C@@H](C)O)C(=O)O`, the Stability [5] is reported as “Unstable”, the half-life [6] is reported as 4 h and the viability at 24 h, 50 µM [4] is reported as > 90%.
